Test results from US11661413B2, “Pyrazole compounds or salts thereof, preparation method therefor, herbicidal composition and use thereof” (priority 2015, dated 2023).

Experiments:
Barnyard grass [1] = assay: weed control effect in post emergence stage, greenhouse pot spray; type: in vivo; settings: sprayed at 2-3 leaf stage, after 3 weeks
Method: (§1) The activity level standard of harmful plant damage (i.e. growth inhibition rate) is as follows: The above described growth control rate is fresh weight control rate. Monocotyledonous and dicotyledonous weed seeds and main crop seeds (i.e. wheat, corn, rice, soybean, cotton, oilseed, millet and Sorghum) were put into a plastic pot loaded with soil. Then covered with 0.5-2 cm soil, the seeds were allowed to grow in good greenhouse environment. The test plants were treated at 2-3 leaf stage 2-3 weeks after sowing. […] The solution was sprayed to the plants with a sprayer. Then the plants were cultured for 3 weeks in the greenhouse.

Flixweed = assay: as above; type: in vivo; settings: 16 g/mu, sprayed at 2-3 leaf stage, after 3 weeks
Method: as §1

Barnyard grass [2] = assay: weed control effect in transplanted rice field (pot, water application); type: in vivo, Echinochloa; settings: 500 g a.i./ha, treated at 0.5 leaf stage, 14 days after treatment, naked eye, weed resistant to pyrazosulfuron-ethyl; further: key: 10: completely dead; above 90% growth inhibition rate; above 80% growth inhibition rate; above 70% growth inhibition rate; above 60% growth inhibition rate; above 50% growth inhibition rate; 4: above 30% growth inhibition rate; above 30% growth inhibition rate; above 20% growth inhibition rate; above 1-10% growth inhibition rate; 0: no effect
Method: (§2) Rice field soil was loaded into a 1/1,000,000 ha pot. The seeds of Echinochloa, Scirpus juncoides, Bidens tripartite and Sagittaria trifolia were sowed and gently covered with soil, then left to stand still in greenhouse in the state of 0.5-1 cm of water storage. The tuber of Sagittaria trifolia was planted in the next day or 2 days later. It was kept at 3-4 cm of water storage thereafter. The weeds were treated by dripping the WP or SC water diluents prepared according to the common preparation method of the compounds of the present invention with pipette homogeneously to achieve specified effective amount when Echinochloa, Scirpus juncoides and Bidens tripartite reached 0.5 leaf stage and Sagittaria trifolia reached the time point of primary leaf stage.
(§3) The fertility condition of Echinochloa, Scirpus juncoides, Bidens tripartite and Sagittaria trifolia 14 days after the treatment of the compound of the invention and the fertility condition of rice 21 days after the treatment of the compound of the invention respectively with the naked eye.
(§4) Note: The seeds of barnyard grass, rushlike bulrush, arrowhead and beggartick are collected from Heilongjing Province of China. Tests indicate that the weeds are resistant to common application rate of pyrazosulfuron-ethyl.

rushlike bulrush = assay: as above; type: in vivo, Scirpus juncoides; settings: 500 g a.i./ha, treated at 0.5 leaf stage, 14 days after treatment, naked eye, weed resistant to pyrazosulfuron-ethyl
Method: as §2, §3, §4

Beggartick = assay: as above; type: in vivo, Bidens tripartite; settings: 500 g a.i./ha, treated at 0.5 leaf stage, 14 days after treatment, naked eye, weed resistant to pyrazosulfuron-ethyl
Method: as §2, §3, §4

Arrowhead = assay: as above; type: in vivo, Sagittaria trifolia; settings: 500 g a.i./ha, treated at primary leaf stage, 14 days after treatment, naked eye, weed resistant to pyrazosulfuron-ethyl
Method: as §2, §3, §4

Row | Structure (SMILES) | weed control effect (activity level), Barnyard grass (Barnyard grass [1]; 1 g/mu) | weed control effect (activity level), Barnyard grass (Barnyard grass [1]; 2 g/mu) | weed control effect (activity level), Barnyard grass (Barnyard grass [1]; 4 g/mu) | weed control effect (activity level), Barnyard grass (Barnyard grass [1]; 8 g/mu) | weed control effect (activity level), Barnyard grass (Barnyard grass [1]; 16 g/mu) | weed control effect (activity level), Flixweed (Flixweed) | weed control effect (activity level), Barnyard grass (Barnyard grass [2]) | weed control effect (activity level), rushlike bulrush (rushlike bulrush) | weed control effect (activity level), Beggartick (Beggartick) | weed control effect (activity level), Arrowhead (Arrowhead)
1 | Cc1cnn(Cc2c(S(C)(=O)=O)ccc(C(=O)c3c(C)nn(C)c3O)c2Cl)c1 [Compound 1] | 4 (above 30% growth inhibition rate) | 7 (above 70% growth inhibition rate) | 8 (above 80% growth inhibition rate) | 10 | 10 | 10 | 10 | 10 | 9 (above 90% growth inhibition rate) | 8 (above 80% growth inhibition rate)
2 | Cc1cc(C)n(Cc2c(S(C)(=O)=O)ccc(C(=O)c3c(C)nn(C)c3O)c2Cl)n1 [Compound 4] | 3 (above 30% growth inhibition rate) | 4 (above 30% growth inhibition rate) | 5 (above 50% growth inhibition rate) | 5 (above 50% growth inhibition rate) | 7 (above 70% growth inhibition rate) | 10 | 10 | 10 | 9 (above 90% growth inhibition rate) | 9 (above 90% growth inhibition rate)
3 | CCc1nn(C)c(O)c1C(=O)c1ccc(S(C)(=O)=O)c(Cn2cc(Cl)cn2)c1Cl [Compound 5] | 2 (above 20% growth inhibition rate) | 2 (above 20% growth inhibition rate) | 4 (above 30% growth inhibition rate) | 7 (above 70% growth inhibition rate) | 8 (above 80% growth inhibition rate) | 10 | 10 | 10 | 10 | 10
4 | Cc1cc(C)n(Cc2c(S(C)(=O)=O)ccc(C(=O)c3c(C4CC4)nn(C)c3O)c2Cl)n1 [Compound 13] | 2 (above 20% growth inhibition rate) | 2 (above 20% growth inhibition rate) | 2 (above 20% growth inhibition rate) | 5 (above 50% growth inhibition rate) | 7 (above 70% growth inhibition rate) | 10 | 10 | 9 (above 90% growth inhibition rate) | 9 (above 90% growth inhibition rate) | 9 (above 90% growth inhibition rate)
5 | CCc1nn(C(C)C)c(O)c1C(=O)c1ccc(S(C)(=O)=O)c(Cn2nc(C)cc2C)c1Cl [Compound 29] | 2 (above 20% growth inhibition rate) | 3 (above 30% growth inhibition rate) | 5 (above 50% growth inhibition rate) | 7 (above 70% growth inhibition rate) | 8 (above 80% growth inhibition rate) | 10 |  |  |  | 
6 | Cc1nn(C(C)C)c(O)c1C(=O)c1ccc(S(C)(=O)=O)c(Cn2cc(Cl)cn2)c1Cl [Compound 30] | 2 (above 20% growth inhibition rate) | 3 (above 30% growth inhibition rate) | 5 (above 50% growth inhibition rate) | 7 (above 70% growth inhibition rate) | 7 (above 70% growth inhibition rate) | 10 |  |  |  | 
7 | CCS(=O)(=O)Oc1c(C(=O)c2ccc(S(C)(=O)=O)c(Cn3cc(C)cn3)c2Cl)c(C)nn1C [Compound 32] | 5 (above 50% growth inhibition rate) | 6 (above 60% growth inhibition rate) | 5 (above 50% growth inhibition rate) | 7 (above 70% growth inhibition rate) | 8 (above 80% growth inhibition rate) | 10 |  |  |  | 
8 | Cc1cc(C)n(Cc2c(S(C)(=O)=O)ccc(C(=O)c3c(C)nn(C)c3OCC(=O)OC(C)(C)C)c2Cl)n1 [Compound 35] | 3 (above 30% growth inhibition rate) | 3 (above 30% growth inhibition rate) | 4 (above 30% growth inhibition rate) | 4 (above 30% growth inhibition rate) | 5 (above 50% growth inhibition rate) | 10 | 10 | 10 | 10 | 9 (above 90% growth inhibition rate)
9 | CCOC(=O)Oc1c(C(=O)c2ccc(S(C)(=O)=O)c(Cn3nc(C)cc3C)c2Cl)c(C)nn1C [Compound 36] | 2 (above 20% growth inhibition rate) | 3 (above 30% growth inhibition rate) | 4 (above 30% growth inhibition rate) | 4 (above 30% growth inhibition rate) | 5 (above 50% growth inhibition rate) | 10 |  |  |  | 
10 | CCOc1c(C(=O)c2ccc(S(C)(=O)=O)c(Cn3nc(C)cc3C)c2Cl)c(C)nn1C [Compound 37] | 0 | 1 (above 1-10% growth inhibition rate) | 1 (above 1-10% growth inhibition rate) | 2 (above 20% growth inhibition rate) | 2 (above 20% growth inhibition rate) | 2 (above 20% growth inhibition rate) |  |  |  | 
11 | CCCCCOc1c(C(=O)c2ccc(S(C)(=O)=O)c(Cn3nc(C)cc3C)c2Cl)c(C)nn1C [Compound 38] | 0 | 1 (above 1-10% growth inhibition rate) | 1 (above 1-10% growth inhibition rate) | 2 (above 20% growth inhibition rate) | 2 (above 20% growth inhibition rate) | 2 (above 20% growth inhibition rate) |  |  |  | 
12 | Cc1cc(C)n(Cc2c(S(C)(=O)=O)ccc(C(=O)c3c(C)nn(C)c3OC(=O)c3nc(Cl)ccc3Cl)c2Cl)n1 [Compound 40] | 3 (above 30% growth inhibition rate) | 5 (above 50% growth inhibition rate) | 5 (above 50% growth inhibition rate) | 7 (above 70% growth inhibition rate) | 8 (above 80% growth inhibition rate) | 10 |  |  |  | 
13 | Cc1nn(C)c(O)c1C(=O)c1ccc(S(C)(=O)=O)c(Cn2nc(C(F)(F)F)cc2C(F)(F)F)c1Cl [Compound 41] | 4 (above 30% growth inhibition rate) | 5 (above 50% growth inhibition rate) | 6 (above 60% growth inhibition rate) | 7 (above 70% growth inhibition rate) | 7 (above 70% growth inhibition rate) | 10 |  |  |  | 
